This note sets out measurements from patent US6316495A, “Method for inhibition of retroviral replication” (priority 1999, dated 2001).

What all share (assay type): biochemical
Assay [1] concerns HIV reverse transcriptase. The assay is described as follows: HIV reverse transcriptase activity with ADPRT, poly-ADP-ribosylated ADPRT and drug inhibitors of poly-ADP-ribosylation (FIG. 3, Example 4). The following applies: for HIV reverse transcriptase activity: absence of ADPRT. How it is done: Reverse transcriptase activity assay conditions were as described in Example 1. NAD was added in a concentration of 62.5 μM and ADPRT in a concentration of 0.5 μM. Inhibitors 6-amino-1,2-benzopyrone (6-ABP) or 5-iodo-6-amino-1,2-benzopyrone (5-I-6-ABP) were added in concentrations 1000 μM, and 400 μM, respectively.
(§1) The medium (coctail) comprises 50 mM Tris-HCl pH 8.0; 60 mM KCl; 7 mM MgCl2; 40 mM DTT (dithiothreitol) 2 mM GSH (glutathione); 60 μg/ml whole histones/ml (Grade A, Sigma, St. Louis); poly (rA) oligo (dT)12-18 (Pharmacia, Piscataway, N. J.) and 50 μM M(0.1 μCalif.) [alfa ^32 P]TTP (ICN, Irvine, CA.) (Reverse transcriptase uses poly(rA) as template and the annealed oligo(dT) as primer for incorporating the labeled TTP).
(§2) The reverse polymerization was started by adding 0.02 μg of recombinant reverse transcriptase protein (ERC BioServices, Rockville, Md.) into 50 μl of coctail. The reaction mixture incubated at 25° C. for 5 minutes.
(§3) The reaction was stopped by adding 2 ml of ice cold 20% trichloroacetic acid and the precipitated nucleic acids were filtered onto glass fiber filters, dried with ethanol and their incorporated radioactivity counted in a liquid scintillation counter.
Using generally the reverse transcriptase procedure described in Example 1, three groups of samples were prepared. The first group contained the coctail described in the Example 1 containing poly (rA).cndot.oligo (dT)12-18 as a template and drugs 6-ABP or 5-I-6-ABP in concentration 1,000 μM and 400 μM, respectively, without the presence of ADPRT.
The second group contained the same ingredients as group 1 but ADPRT at a concentration to 0.5 μM was added to all samples.
The third group contained the same ingredients as group 2 but NAD in a concentration of 62.5 μM was added.

Assay [2] relates to Human recombinant HIV reverse transcriptase. The assay is described as follows: Effect of unmodified and ADP-ribosylated ADPRT on HIV reverse transcriptase activity (FIG. 1, Example 2). How it is done:
The basic assay system for measurement of reverse transcriptase activity is described in Example 1. Human recombinant HIV reverse transcriptase used in the assay was obtained from HIV, ERC Bioservices. ADPRT used in this experiment is highly purified ADPRT protein prepared according to Anal. Biochem., 167:160 (1987). ADPRT was added to the reverse transcriptase assay system at various concentrations ranging from 0.01 to 1 μM. When the effect of […], pre-ADP-ribosylated ADPRT was assayed, the ADPRT enzyme was incubated with NAD and cofactors according to FEBS Letters, 212:73 (1987). The poly ADP-ribosylated ADPRT was isolated by centricon ultrafiltration and added in various concentration as shown in FIG. 1.
as §1, §2, §3
A small amount (300 μg) of ADPRT (0.5 μM) of final concentration was incubated with 100 mM NAD in 3 ml of 25 mM Tris-HCl (pH 7.4), 0.3% Tween 20 at 25° C. for three hours to render the protein auto-poly (ADP-ribosyl)ated, then concentrated to 3 mg/ml. Using generally the reverse transcriptase assay conditions as described in Example 1, the effect of automodified and unmodified ADPRT was monitored.

The test system of assay [3] is recombinant human HIV reverse transcriptase. The assay is described as follows: Activation of HIV reverse transcriptase by auto-(ADP-ribosylated) ADPRT (FIG. 2, Example 3). The following applies: 0.5 μM ADPRT, no NAD. How it is done:
Such abrogation and its time dependency is further illustrated in FIG. 2 wherein the activation of HIV reverse transcriptase by auto-ADP-ribosylated ADPRT is expressed as % of reverse transcriptase activity. The experimental conditions are as described in Example 3. […] Samples in columns 3-5 were incubated for time periods as indicated.
The medium (coctail) comprises 50 mM Tris-HCl pH 8.0; 60 mM KCl; 7 mM MgCl2; 40 mM DTT (dithiothreitol) 2 mM GSH (glutathione); 60 μg/ml whole histones/ml (Grade A, Sigma, St. Louis); poly (rA) oligo (dT)12-18 (Pharmacia, Piscataway, N. J.) and 50 μM M(0.1 μCalif.) [alfa ^32 P]TTP (ICN, Irvine, CA.) (Reverse transcriptase uses poly(rA) as template and the annealed oligo(dT) as primer for incorporating the labeled TTP). […]
The reaction was stopped by adding 2 ml of ice cold 20% trichloroacetic acid and the precipitated nucleic acids were filtered onto glass fiber filters, dried with ethanol and their incorporated radioactivity counted in a liquid scintillation counter. […]
The mixture was incubated at 25° C. for 5, 10 and 25 minutes, then the recombinant reverse transcriptase was added and the mixture was incubated for additional 5 minutes. The reaction was stopped, as described above, the precipitate was filtered and radioactivity counted.

For the compound `Nc1ccc2oc(=O)ccc2c1I` [5-I-6-ABP, 5-iodo-6-amino-1,2-benzopyrone], the “activity of reverse transcriptase” value is listed as “the same as the one seen in column 6” in assay [1] (0.5 μM ADPRT + 62.5 μM NAD + 5-I-6-ABP 400 μM (column 9)); “only very slightly” in assay [1] (0.5 μM ADPRT + 5-I-6-ABP 400 μM); “about 50%” in assay [1] (0.5 μM ADPRT + 5-I-6-ABP 400 μM, listed as 5-I-ABP, 400 µM). Besides, the “HIV reverse transcriptase activity” value in assay [1] (5-I-6-ABP 400 μM) is listed as “did not affect”.
Consider `Nc1ccc2oc(=O)ccc2c1` [6-ABP, 6-amino-1,2-benzopyrone], for which the reverse transcriptase activity entry in assay [1] (0.5 μM ADPRT + 62.5 μM NAD + 6-ABP 1000 μM) is “about 60%”. Moreover, the “activity of reverse transcriptase” value was “only very slightly” in assay [1] (0.5 μM ADPRT + 6-ABP 1000 μM) and “about 50%” in assay [1] (0.5 μM ADPRT + 6-ABP 1000 μM, 1000 µM). Moreover, the “HIV reverse transcriptase activity” value in assay [1] (6-ABP 1000 μM) is given as “did not affect”.
Turning to “adenosine diphosphoribosyl transferase [ADPRT]”, the “activity of reverse transcriptase” value was “about 50%” in assay [1] (0.5 μM pure ADPRT only (column 4)) and “about 20%” in assay [2] (around 1-1.3 μM ADPRT, control 100%). For the same compound, the “inhibition of reverse transcriptase activity” value in assay [2] (0.05 μM pure ADPRT) was 10%. Further, the “effect on reverse transcription (FIG. 1 summary)” value in assay [2] (0.01 to 1 μM added to RT assay) is recorded as “inhibits RT in a concentration-dependent manner”. Further, the “inhibition of reverse transcriptase” value in assay [2] (around 1-1.3 μM ADPRT) is listed as 75-80%. The “depression/inhibition of reverse transcriptase activity” value in assay [3] is given as “about 50%”.
